How the values were obtained:
[1] = test system: Human islets; experiment: Insulin secretion from cultured human islets (insulin ELISA); format: cell-based; settings: FIG. 1; for Insulin secretion, single agonist: human islets, 60 min stimulation with glucose and peptide, single CRF receptor agonist added
Protocol: Human islets were handpicked twice and cultured overnight in CMRL-1066 medium (Invitrogen™) supplemented with 10% fetal bovine serum (FBS) and penicillin/streptomycin at 37° C., 5% CO2. Islets were starved in RPMI 1640 medium supplemented with 1.4 mM glucose and 0.1% BSA for 60 min and then were transferred into 1.2 mL of medium (RPMI 1640 supplemented with 2.8 mM glucose, 0.1% BSA) in 24-well plates at 100 islets/well. After 60 min, 600 μL of medium was collected for the determination of basal insulin release, and then islets were stimulated for 60 min with glucose and peptide as indicated in RPMI 1640 containing 0.1% BSA. Samples were diluted 20 times in RPMI 1640 with 0.1% BSA and were stored at −20° C. until determination of insulin concentrations with an insulin ELISA kit (Mercodia AB).
Peptides used in the studies were ovine CRF (oCRF), a selective CRF-R1 agonist; human Urocortin 3 (hUcn 3), a selective CRF-R2 agonist; antalarmin, a selective CRF-R1 antagonist; and astressin2-B, a selective CRF-R2 antagonist. […] Insulin secretion was enhanced by addition of either a CRF1 receptor agonist (oCRF) or a CRF2 receptor agonist (hUcn 3). […] The synergistic enhancement was inhibited by the addition of either a CRF1 receptor antagonist (antalarmin) or a CRF2 receptor antagonist (astressin2-B) to the cells (FIG. 1).

[2] = test system: pancreatic beta cell mass; experiment: Beta cell mass in doxycycline-inducible, beta cell-specific Ucn 1 transgenic mice; format: in vivo; settings: bitransgenic mouse, doxycycline for 6 weeks (21 days to 9 weeks of age), vs single transgenic controls on dox or bitransgenic without dox; FIG. 5
Excerpt: A transgenic mouse model that features beta cell-specific, doxycycline-inducible expression of Ucn 1 was generated by routine transgenic techniques. Single transgenic mice were obtained comprising either an expressible tetracycline transactivator (tTA) protein under the control of a pancreas-specific Insulin2 promoter (Jax Stock#008250 STOCK Tg(Ins2-rtTA)2Efr/J) or expressible Ucn1 under the control of a tTA protein-activated promoter (see, e.g., Sun et al., 2007 and Mallo, 2006). Single transgenic mice were crossed to generate the bitransgenic mice referenced in the studies. Thus, transgenic Ucn 1 expression in beta cells requires the presence of two transgenic cassettes as well as the administration of doxycycline. […] Bitransgenic animals, along with single transgenic controls, were administered doxycyline continuously as indicated from 21 days until 9 weeks of age. […] Sections were mounted in fluorescence mounting media containing dapi counterstain. Each section was scanned and the total pancreas surface area (based on the dapi counterstain) and the total beta cell surface area (based on the insulin-Cy3 stain) were quantified using standard morphometry techniques using Metamorph software. Beta cell area in each animal was expressed as the insulin+ surface area as a percentage of the total surface area (FIG. 5).

Molecule: oCRF: ovine CRF, a selective CRF-R1 agonist (SQEPPISLDLTFHLLREVLEMTKADQLAQQAHSNRKLLDIA)
- Insulin secretion, single agonist [1]: enhanced

Molecule: hUcn 3: human Urocortin 3, a selective CRF-R2 agonist (FTLSLDVPTNIMNLLFNIAKAKNLRAQAAANAHLMAQI)
- Insulin secretion, single agonist [1]: enhanced

Molecule: CCCCN(CC)c1nc(C)nc2c1c(C)c(C)n2-c1c(C)cc(C)cc1C [antalarmin]
- Effect of antagonist on the synergistic enhancement of insulin secretion ([1]; human islets co-stimulated with CRF1 and CRF2 receptor agonists, antagonist added): inhibited

B1: Ucn 1: Urocortin 1, agonist of both CRF1 and CRF2 receptors, expressed transgenically in mouse beta cells under doxycycline control (protein, listed as Homo sapiens)
chain: MRQAGRAALLAALLLLVQLCPGSSQRSPEAAGVQDPSLRWSPGARNQGGGARALLLLLAERFPRRAGPGRLGLGTAGERPRRDNPSLSIDLTFHLLRTLLELARTQSQRERAEQNRIIFDSVGK
- Beta cell mass (insulin+ surface area as a percentage of total pancreas surface area) [2]: robust increase

Source: patent publication US9314506B2, “Methods for increasing insulin secretion by co-stimulation of corticotropin-releasing factor receptors” (Research Development Foundation, priority 2011, dated 2016)
